Source: ChEMBL document CHEMBL1141583, “Chemotherapeutic bone-targeted bisphosphonate prodrugs with hydrolytic mode of activation” (Bioorg Med Chem Lett, 2008)

Columns and labels:
[1] = Chemical stability in phosphate buffer saline at pH 7.4; format: physicochemical
Jurkat = test: Growth inhibition of human Jurkat cells after 96 hrs; format: functional, cell-based

| SMILES | half-life [1] | IC50 (Jurkat) |
| --- | --- | --- |
| COc1cc(COC(=O)NC(Cc2c[nH]c3ccccc23)C(=O)O)cc(OC)c1OC(=O)OCCCCCCC(P(=O)(O)O)P(=O)(O)O (stereo not drawn) [TRYPDRONATE] | 90 h |  |
| CC[C@@]1(O)C(=O)OCc2c1cc1n(c2=O)Cc2cc3ccccc3nc2-1 [CAMPTOTHECIN] |  | 1.4 nM |
| CC[C@@]1(OC(=O)CCC(P(=O)(O)O)P(=O)(O)O)C(=O)OCc2c1cc1n(c2=O)Cc2cc3ccccc3nc2-1 [CAMDRONATE] |  | 21 nM |
